Converted amounts (≈) assume the structure as drawn. “And” between values parts separate entries of the source, which are not always exact repeats. Equal entries are not always repeated.

In patent US11279735B2, “Cyclic peptide antibiotics” (priority 2017, dated 2022) one finds MIC data, which are given here for eight molecules.

For the first assay, the system named is Escherichia coli (E. coli) strain CFT073 ATCC 700928. The assay is classed as cell-based. Particulars: ATCC 700928, 22 h. In a few lines: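 MICs were read after 22 h at 35 °C, with bacteria added to a final OD600 of 0.0005. Compounds were serially diluted 2-fold over ten concentrations from a top of 64, 4, 0.5 or 0.13 μg/mL (protocols 1–4). Medium was cation-adjusted Mueller Hinton II broth plus 0.002% Tween-80, following CLSI M07-A8.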
In general, MIC refers to the lowest concentration that inhibits growth of the organism. High values mean a need for much substance, low ones inhibition by little substance. In turn, `CCCCCCCCCC[C@H]1OC(=O)CNC(=O)[C@H]([C@H](C)O)NC(=O)[C@H](CN)NC(=O)[C@H](C2CCCC2)NC(=O)[C@H](CC(C)C)N(C)C(=O)[C@@H]1C` [Example 45, (6S,9S,12S,15S,18R,19R)-9-(aminomethyl)-12-cyclopentyl-19-decyl-6-[(1S)-1-hydroxyethyl]-15-isobutyl-16,18-dimethyl-1-oxa-4,7,10,13,16-pentazacyclononadecane-2,5,8,11,14,17-hexone] had an MIC of 25 µM (≈ 18.1 µg/mL).

In the case of `CCCCCCCCCC[C@H]1OC(=O)CNC(=O)[C@H]([C@H](C)O)NC(=O)[C@H](CCN)NC(=O)[C@H]([C@@H](C)CC)NC(=O)[C@H](CC(C)C)N(C)C(=O)[C@@H]1C` [Example 25, (6S,9S,12S,15S,18R,19R)-9-(2-aminoethyl)-19-decyl-6-[(1S)-1-hydroxyethyl]-15-isobutyl-16,18-dimethyl-12-[(1S)-1-methylpropyl]-1-oxa-4,7,10,13,16-pentazacyclononadecane-2,5,8,11,14,17-hexone], the minimum inhibitory concentration (MIC) came out at 25 µM (≈ 18.1 µg/mL).

In turn, `CCCCCC[C@H]1OC(=O)CNC(=O)[C@H]([C@H](C)O)NC(=O)[C@H](CN)NC(=O)[C@H](C2CCCCC2)NC(=O)[C@H](CC(C)C)N(C)C(=O)[C@@H]1Cc1ccc(OC)cc1` [Example 123, (6S,9S,12S,15S,18R,19R)-9-(aminomethyl)-12-cyclohexyl-19-hexyl-6-[(1S)-1-hydroxyethyl]-15-isobutyl-18-[(4-methoxyphenyl)methyl]-16-methyl-1-oxa-4,7,10,13,16-pentazacyclononadecane-2,5,8,11,14,17-hexone] returned an MIC of 12 µM (≈ 9.44 µg/mL).

With `CCCCCCCCCC[C@H]1OC(=O)CNC(=O)[C@H]([C@H](C)O)NC(=O)[C@H](CN)NC(=O)[C@H]([C@H](C)CC)NC(=O)[C@H](CCc2ccccc2)N(C)C(=O)[C@@H]1C` [Example 88, (6S,9S,12S,15S,18R,19R)-9-(aminomethyl)-19-decyl-16,18-dimethyl-15-(2-phenylethyl)-6-[(1S)-1-hydroxyethyl]-12-[(1R)-1-methylpropyl]-1-oxa-4,7,10,13,16-pentazacyclononadecane-2,5,8,11,14,17-hexone], the MIC turned out to be 50 µM (≈ 38 µg/mL).

Turning to `CCCCCC[C@H]1OC[C@@H](C)NC(=O)[C@H](COc2ccc(CN)cc2)NC(=O)[C@H](CN)NC(=O)[C@H](C2CCCCC2)NC(=O)[C@H](CC(C)C)N(C)C(=O)[C@@H]1C` [Example 76, (3R,6S,9S,12S,15S,18R,19R)-9-(Aminomethyl)-6-((4-(aminomethyl)phenoxy)methyl)-12-cyclohexyl-19-hexyl-15-isobutyl-3,16,18-trimethyl-1-oxa-4,7,10,13,16-pentaazacyclononadecane-5,8,11,14,17-pentaone], the MIC stood at 6.3 µM (≈ 4.86 µg/mL).

`CCCCCC[C@H]1OC(=O)CNC(=O)[C@H]([C@H](C)O)NC(=O)[C@H](CN)NC(=O)[C@H](C2CCCCCC2)NC(=O)[C@H](CC(C)C)N(C)C(=O)[C@@H]1C` [Example 59, (6S,9S,12S,15S,18R,19R)-9-(Aminomethyl)-12-cycloheptyl-19-hexyl-6-((S)-1-hydroxyethyl)-15-isobutyl-16,18-dimethyl-1-oxa-4,7,10,13,16-pentaazacyclononadecane-2,5,8,11,14,17-hexaone] had an MIC of 1.1 µM (≈ 0.764 µg/mL).

On to `CCCCCCCCCC[C@H]1OC(=O)[C@@H](C)NC(=O)[C@H]([C@H](C)O)NC(=O)[C@H](CO)NC(=O)[C@H]([C@@H](C)CC)NC(=O)[C@H](CC(C)C)N(C)C(=O)[C@@H]1C` [Example 4, (3R,6S,9S,12S,15S,18R,19R)-12-((S)-sec-butyl)-19-decyl-6-((S)-1-hydroxyethyl)-9-(hydroxymethyl)-15-isobutyl-3,16,18-trimethyl-1-oxa-4,7,10,13,16-pentaazacyclononadecane-2,5,8,11,14,17-hexaone], for which the minimum inhibitory concentration (MIC) was 13 µM (≈ 9.44 µg/mL).

Still in this assay, the particulars now being: E. coli CFT073 ATCC 700928; Mueller Hinton II cation adjusted Broth with 0.002% v/v Tween-80; 35° C. for 22 hours; lowest concentration that completely prevented bacterial growth.
On to `CCCCCCCCCC[C@H]1OC(=O)CNC(=O)[C@H](CO)NC(=O)[C@H](CO)NC(=O)[C@H]([C@H](C)CC)NC(=O)[C@H](CC(C)C)N(C)C(=O)[C@@H]1C` [Example 5, (6S,9S,12S,15S,18R,19R)-12-((R)-sec-butyl)-19-decyl-6,9-bis(hydroxymethyl)-15-isobutyl-16,18-dimethyl-1-oxa-4,7,10,13,16-pentaazacyclononadecane-2,5,8,11,14,17-hexaone], for which the MIC was 4.7 µM and 3.1 µM.
